Test results published in patent US20090209525A1, “ENABLING METHODS TO IDENTIFY ALLOSTERIC MODULATORS OF RECEPTOR ACTIVITY” (priority 2006, published 2009).
Where a chain is given by its changes, count along the chain named.

Columns and labels:
rat M1 Y106A receptor [1] = target: T1, rat M1 Y106A receptor (Rattus norvegicus, UniProt P08482, Y106A); assay: ^3H-NMS radioligand binding, Y106A; conditions: for Shift: Ki Y106A divided by Ki wild-type
T1 construct: expressed in transfected cells
T1 sequence (P08482 1-460 Y106A): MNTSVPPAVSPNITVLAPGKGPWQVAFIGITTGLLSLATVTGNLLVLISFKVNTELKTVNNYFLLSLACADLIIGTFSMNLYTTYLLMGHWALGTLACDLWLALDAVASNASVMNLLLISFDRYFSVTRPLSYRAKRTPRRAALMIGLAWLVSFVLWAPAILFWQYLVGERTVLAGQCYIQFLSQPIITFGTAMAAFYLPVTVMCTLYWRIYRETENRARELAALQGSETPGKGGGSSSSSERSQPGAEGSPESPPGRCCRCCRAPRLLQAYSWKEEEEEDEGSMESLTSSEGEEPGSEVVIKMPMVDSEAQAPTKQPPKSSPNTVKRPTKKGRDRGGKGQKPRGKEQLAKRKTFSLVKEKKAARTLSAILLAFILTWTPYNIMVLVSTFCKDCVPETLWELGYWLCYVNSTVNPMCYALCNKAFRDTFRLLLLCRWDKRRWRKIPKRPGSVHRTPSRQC
Method: (§1) Briefly, cell homogenates are prepared from cells transiently or stably expressing wild type or mutant receptors. For transiently transfected cells, HEK cells are transfected with receptor of interest and cells harvested 48 hours post transfection. Cells expressing the receptor, stably or transiently, are harvested using phosphate buffered saline containing 5 mM EDTA, cells centrifuged at low speed and pellet re-suspended in binding buffer. Cell suspension is polytroned and centrifuged at 15,000×g. The pellet is resuspended in binding buffer and centrifugation repeated two more times. The washed cell homogenates are used for the competition binding assays. Competition binding assays are carried out in the presence of fixed amount of cell homogenate, fixed concentration of radioactively labeled orthosteric or allosteric ligand and varying concentrations of the cal under study using appropriate buffer. Incubations are carried out at room temperature for 2 hours. Incubations are terminated by filtration onto GF/B filters using Packard cell harvester followed by 3 washes with ice-cold buffer. Radioactivity retained on the filters is quantitated using Packard Top Count using Microscint 20 scintillation fluid. […] The membranes prepared above are incubated with a labeled ligand in 25 mM sodium phosphate, 5 mM magnesium chloride, 0.01% BSA two hours at room temperature. The binding reaction is stopped by rapid filtration onto GF/B filters. […] The pKd values (pKd=−log Kd) of the labeled ligand are calculated.
(§2) Radioligand binding assays were carried out in 25 mM sodium phosphate, 5 mM magnesium chloride, 0.01% BSA. Incubations were for two hours at room temperature, and reactions were stopped by rapid filtration onto GF/B filters.

rat M1 L102A receptor = target: T2, rat M1 L102A receptor (Rattus norvegicus, UniProt P08482, L102A); assay: R-SAT functional assay, L102A mutant; format: cell-based; conditions: for Shift / EC50 / Eff (%): Table 3; for Shift: EC50 L102A divided by EC50 wild-type; for Eff (%): maximum response, normalized
T2 construct: expressed in transfected cells; host or cells: NIH-3T3
T2 sequence (P08482 1-460 L102A): T1 sequence (P08482 1-460 Y106A) with L102A, A106Y
Method: (§3) Cells are co-transfected for 18 h with DMEM containing 0.08 micrograms/ml of an expression vector for the expression of the mutant receptor and 0.3 micrograms/ml pSI-Bgal (Promega, Madison Wis.), and 0.5% v/v Polyfect (Qiagen, Valencia Calif.), as recommended by the manufacturer. On day three, the medium is replaced with DMEM containing 1% PSG, 0.5% calf serum, 2% cyto-sf3 (Kemp Biotechnologies, Frederick, Md.), and varying concentrations of the compounds to be tested. Cells are grown in a humidified atmosphere with 5% ambient CO2 for 5 days. The media is removed from the plates, and beta-galactosidase activity is measured by the addition of o-nitrophenyl -d-galactopyranoside in phosphate-buffered saline with 5% Nonidet P-40. […] The following equation is fitted to the data using GraphPad Prism software (San Diego, Calif.):
(§4) NIH-3T3 cells were grown in 96-well tissue culture plates to 70 to 80% confluence in Dulbecco's modified essential media (DMEM) supplemented with 100 units/ml penicillin, 100 micrograms/ml streptomycin, 0.3 mg/ml L-glutamine (1% PSG, GIBCO) and 10% calf serum (Sigma-Aldrich). Cells were transfected for 18 h with DMEM containing 0.08 micrograms/ml receptor DNA and 0.3 micrograms/ml pSI-Bgal (Promega, Madison Wis.), 0.5% v/v Polyfect (Qiagen, Valencia Calif.). Medium was replaced with DMEM containing 1% PSG, 0.5% calf serum, 2% cyto-sf3 (Kemp Biotechnologies, Frederick, Md.), and varying concentrations of ligand. […] Cells were grown in a humidified atmosphere with 5% ambient CO2 for 5 days. Medium was removed from the plates, and beta-galactosidase activity was measured by the addition of o-nitrophenyl -d-galactopyranoside in phosphate-buffered saline with 5% Nonidet P-40.

rat M1 W101A receptor = target: T3, rat M1 W101A receptor (Rattus norvegicus, UniProt P08482, W101A); assay: ^3H-NMS radioligand binding, W101A; conditions: for Shift: Ki W101A divided by Ki wild-type; for increase in binding affinity relative to wild-type: radioligand binding, W101A
T3 construct: expressed in transfected cells
T3 sequence (P08482 1-460 W101A): T1 sequence (P08482 1-460 Y106A) with W101A, A106Y
Method: as §1, §2

rat M1 Y106A receptor [2] = target: T1, rat M1 Y106A receptor; assay: R-SAT functional assay, Y106A mutant; format: cell-based; conditions: for Shift / EC50 / Eff (%): Table 3; for Shift: EC50 Y106A divided by EC50 wild-type; for Eff (%): maximum response, normalized
Method: as §3, §4

IC50 (rat M1 Y106A receptor [1])	Shift (rat M1 Y106A receptor [1])	Shift (rat M1 L102A receptor)	EC50 (rat M1 L102A receptor; L102A)	Eff (%) (rat M1 L102A receptor; L102A)	IC50 (rat M1 W101A receptor)	Shift (rat M1 W101A receptor)	Emax (rat M1 Y106A receptor [2]; R-SAT, Y106A, read-out: increase of maximum response over response at wild-type)	Shift (rat M1 Y106A receptor [2])	EC50 (rat M1 Y106A receptor [2]; Y106A)	Eff (%) (rat M1 Y106A receptor [2]; Y106A)	decrease in potency relative to wild-type (rat M1 L102A receptor; R-SAT, L102A)	Compound	increase in binding affinity relative to wild-type (rat M1 W101A receptor)
0.0501 µM	0.3	>100	> 10 µM	>35 ± — %	0.126 µM	1	40%	2	0.1 µM	112 ± 15%	–	Clc1ccc2c(c1)N=C(N1CCNCC1)c1ccccc1N2 [NDMC, 8-chloro-11-(1-piperazinyl)-5H-dibenzo [b,e] [1,4] diazepine]	–
3.16 µM	3	30	0.501 µM	37 ± 7%	0.00316 µM	0.003	–	6	0.0794 µM	69 ± 3%	30 fold	CCCCC1CCN(CCCN2C(=O)COc3cc(F)ccc32)CC1 [AC-260584, 4-[3-(4-Butyl-piperidin-1-yl)-propyl]-7-fluoro-4H-benzo [1,4]oxazin-3-one]	over 100 fold

Compound	IC50 (rat M1 Y106A receptor [1])	Shift (rat M1 Y106A receptor [1])	Shift (rat M1 L102A receptor)	EC50 (rat M1 L102A receptor; L102A)	Eff (%) (rat M1 L102A receptor; L102A)	IC50 (rat M1 W101A receptor)	Shift (rat M1 W101A receptor)	Emax (rat M1 Y106A receptor [2]; R-SAT, Y106A, read-out: increase of maximum response over response at wild-type)	Shift (rat M1 Y106A receptor [2])	EC50 (rat M1 Y106A receptor [2]; Y106A)	Eff (%) (rat M1 Y106A receptor [2]; Y106A)	decrease in potency relative to wild-type (rat M1 L102A receptor; R-SAT, L102A)	increase in binding affinity relative to wild-type (rat M1 W101A receptor)
CCCCC1CCN(CCCC(=O)c2ccccc2C)CC1 [AC-42, 4-n-butyl-1-[4-(2-methylphenyl)-4-oxo-1-butyl] piperidine hydrogen chloride]	5.01 µM	1	–	–	6 ± 0%	0.0501 µM	0.01	–	>8	> 1 µM	>30 ± — %	–	50 fold
